Experimental data taken from US20150216978A1, “MODULATORS OF DRUGS USING CARBOXYLESTERASE SELECTIVE INHIBITORS” (Rhode Island Board of Education, State of Rhode Island and …, priority 2013, published 2015).

Legend:
mouse ces2e = molecular target: T1, mouse ces2e (Mus musculus, UniProt Q8BK48); settings: 1 nM Orlistat; cited from earlier work
T1 sequence (Q8BK48 27-559): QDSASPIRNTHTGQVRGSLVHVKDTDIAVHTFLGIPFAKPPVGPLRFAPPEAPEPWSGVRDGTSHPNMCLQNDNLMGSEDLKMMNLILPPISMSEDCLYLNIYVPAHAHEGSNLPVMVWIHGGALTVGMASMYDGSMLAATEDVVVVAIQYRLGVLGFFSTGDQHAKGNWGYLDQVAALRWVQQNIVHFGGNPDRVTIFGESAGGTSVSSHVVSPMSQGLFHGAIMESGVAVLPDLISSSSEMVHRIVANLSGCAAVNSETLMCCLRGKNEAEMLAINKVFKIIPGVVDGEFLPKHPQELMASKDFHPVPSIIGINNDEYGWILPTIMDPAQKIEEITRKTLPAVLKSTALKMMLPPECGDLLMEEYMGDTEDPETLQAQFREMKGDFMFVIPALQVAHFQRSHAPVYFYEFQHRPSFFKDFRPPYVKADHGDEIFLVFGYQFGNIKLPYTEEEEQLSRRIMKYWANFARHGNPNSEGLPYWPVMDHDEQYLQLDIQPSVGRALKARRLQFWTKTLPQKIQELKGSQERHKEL

CES2 [1] = molecular target: T2, CES2 (Homo sapiens, UniProt O00748); assay: Inhibition of carboxylesterases by Orlistat (human CES2); assay type: biochemical; settings: Orlistat at 1 nM
T2 sequence (O00748 27-559): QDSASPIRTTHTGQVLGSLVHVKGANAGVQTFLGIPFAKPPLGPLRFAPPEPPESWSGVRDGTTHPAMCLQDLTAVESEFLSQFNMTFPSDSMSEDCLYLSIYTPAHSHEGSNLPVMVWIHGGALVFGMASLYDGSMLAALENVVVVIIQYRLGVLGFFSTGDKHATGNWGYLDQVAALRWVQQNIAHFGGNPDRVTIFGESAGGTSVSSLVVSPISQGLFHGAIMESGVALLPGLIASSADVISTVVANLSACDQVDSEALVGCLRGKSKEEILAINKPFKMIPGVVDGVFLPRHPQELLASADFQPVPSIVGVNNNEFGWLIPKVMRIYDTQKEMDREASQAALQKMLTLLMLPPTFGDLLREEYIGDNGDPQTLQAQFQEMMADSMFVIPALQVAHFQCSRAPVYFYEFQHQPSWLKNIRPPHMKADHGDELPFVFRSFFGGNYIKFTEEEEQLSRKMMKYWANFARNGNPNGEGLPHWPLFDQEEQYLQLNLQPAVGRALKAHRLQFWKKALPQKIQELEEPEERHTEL
Excerpt: (§1) For a decade, Orlistat has been the most used anti-obesity drug. However, the use of Orlistat has been associated with fatal liver and kidney toxicity. This type of toxicity is rare, pointing to a compound effect of multiple factors. Specifically, we assumed that orlistat alters the activity of detoxification enzymes, which may have fatal effects when these factors are perfectly aligned. To shed light on this possibility, we tested Orlistat for the inhibition of carboxylesterases, a class of hydrolytic enzymes with known detoxication significance. […] Orlistat at 1 nM inhibited CES2 by 75%, but no inhibition was detected with CES1. […] In a striking contrast, rat ces1d and ces1e, two major forms of liver CESs, were resistant to Orlistat (Biochem Pharmacol. 2013, 85:439-447).

CES1 = molecular target: T3, CES1 (Homo sapiens, UniProt P23141); assay: Inhibition of carboxylesterases by Orlistat (human CES1); assay type: biochemical
T3 sequence (P23141 18-567): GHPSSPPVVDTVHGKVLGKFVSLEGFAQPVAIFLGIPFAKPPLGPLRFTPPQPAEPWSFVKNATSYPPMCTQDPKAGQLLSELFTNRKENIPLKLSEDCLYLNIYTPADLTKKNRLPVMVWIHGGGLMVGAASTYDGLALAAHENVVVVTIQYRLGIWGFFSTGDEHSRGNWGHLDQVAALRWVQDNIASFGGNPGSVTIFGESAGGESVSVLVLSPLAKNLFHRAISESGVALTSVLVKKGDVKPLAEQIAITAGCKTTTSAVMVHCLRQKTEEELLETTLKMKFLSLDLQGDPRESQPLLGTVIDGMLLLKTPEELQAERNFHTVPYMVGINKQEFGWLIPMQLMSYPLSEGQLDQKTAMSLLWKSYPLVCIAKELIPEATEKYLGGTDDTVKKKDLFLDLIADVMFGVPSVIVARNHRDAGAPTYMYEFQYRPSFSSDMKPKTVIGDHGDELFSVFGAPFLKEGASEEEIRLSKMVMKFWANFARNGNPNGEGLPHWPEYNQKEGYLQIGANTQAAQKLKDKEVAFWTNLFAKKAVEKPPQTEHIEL
Excerpt: as §1

cells = assay: Cell viability of cells treated with PPD in the presence or absence of Orlistat; assay type: cell-based
Method: To shed light on the clinical consequences of inhibited CES2 by Orlistat, cells were treated with PPD in the presence or absence of Orlistat. PPD is a carbamate anticancer prodrug and activated preferentially by CES2 hydrolysis of the ester side chain of the carbamate (20, 21). […] This finding was confirmed in CES2 induced condition (Brit J Pharmacol. 2013, 168:1989-1999).

CES2 [2] = molecular target: T2, CES2; assay: Cellular inhibition of CES2 in LS180 cells, lysates tested by native gel electrophoresis and Western blotting; assay type: cell-based; set-up: endogenous in cells; host or cells: LS180
Method: The cellular activity of Orlistat was examined on the inhibition of CES2 within cells. To test this possibility, LS180 cells (a colon adenocarcinoma line) were treated with orlistat for 1-24 h, washed extensively to remove free Orlistat and lysed by sonication. The lysates were then tested for the hydrolytic activity by native gel electrophoresis. […] We next tested whether the less inhibition by prolonged incubation was due to increased expression of CES2. Western blotting was performed with the same gel stained for activity. As predicated, prolonged incubation increased CES2 expression (FIG. 3B). These findings established that regeneration of CES2 requires new synthesis of CES2.

rat ces1e = molecular target: T4, rat ces1e (Rattus norvegicus, UniProt Q63108); settings: major form of rat liver CES; cited from earlier work
T4 sequence (Q63108 19-561): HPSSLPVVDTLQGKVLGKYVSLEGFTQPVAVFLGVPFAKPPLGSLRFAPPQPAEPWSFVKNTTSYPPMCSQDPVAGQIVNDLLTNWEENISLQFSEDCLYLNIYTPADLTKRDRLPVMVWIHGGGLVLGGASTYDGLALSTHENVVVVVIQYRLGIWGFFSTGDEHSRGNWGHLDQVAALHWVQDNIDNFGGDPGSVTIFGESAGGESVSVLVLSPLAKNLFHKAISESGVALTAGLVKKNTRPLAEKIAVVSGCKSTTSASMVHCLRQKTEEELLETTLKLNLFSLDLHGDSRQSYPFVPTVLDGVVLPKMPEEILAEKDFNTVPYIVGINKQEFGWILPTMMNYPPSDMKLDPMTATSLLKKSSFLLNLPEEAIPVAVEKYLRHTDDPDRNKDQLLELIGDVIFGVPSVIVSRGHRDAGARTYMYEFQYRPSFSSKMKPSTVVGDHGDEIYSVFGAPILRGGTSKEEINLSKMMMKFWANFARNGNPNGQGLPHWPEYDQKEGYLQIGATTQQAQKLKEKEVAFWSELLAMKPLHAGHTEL

CES2 [3] = molecular target: T2, CES2; assay: Irreversibility: human liver microsomes incubated with Orlistat, native gel electrophoresis, activity staining (CES2); assay type: biochemical; set-up: from tissue; host or cells: human liver microsomes
Method: It was tested whether the inhibition involves covalent interactions between Orlistat and CES2. Microsomes from human livers (CES1 and CES2) were incubated with Orlistat, resolved by native gel electrophoresis to remove free Orlistat, and stained for the remaining activity.

rat ces1d = molecular target: T5, rat ces1d (Rattus norvegicus, UniProt P16303); settings: major form of rat liver CES; cited from earlier work
T5 sequence (P16303 19-565): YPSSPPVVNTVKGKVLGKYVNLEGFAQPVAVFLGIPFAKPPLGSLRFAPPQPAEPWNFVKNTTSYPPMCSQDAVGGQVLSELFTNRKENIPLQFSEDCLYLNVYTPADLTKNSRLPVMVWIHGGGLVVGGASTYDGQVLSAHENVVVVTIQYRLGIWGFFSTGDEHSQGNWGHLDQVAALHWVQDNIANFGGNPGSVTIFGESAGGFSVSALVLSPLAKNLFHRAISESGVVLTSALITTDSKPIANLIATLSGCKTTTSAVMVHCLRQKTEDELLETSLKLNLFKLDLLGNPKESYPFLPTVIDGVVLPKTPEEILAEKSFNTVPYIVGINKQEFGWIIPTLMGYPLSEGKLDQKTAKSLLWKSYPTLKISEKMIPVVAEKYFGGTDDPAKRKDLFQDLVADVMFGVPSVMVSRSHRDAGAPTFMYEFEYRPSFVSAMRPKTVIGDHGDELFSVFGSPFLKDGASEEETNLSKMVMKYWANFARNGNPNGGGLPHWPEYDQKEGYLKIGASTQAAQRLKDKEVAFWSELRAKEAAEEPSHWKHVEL

mouse ces2c = molecular target: T6, mouse ces2c (Mus musculus, UniProt Q91WG0); settings: 1 nM Orlistat; cited from earlier work
T6 sequence (Q91WG0 27-561): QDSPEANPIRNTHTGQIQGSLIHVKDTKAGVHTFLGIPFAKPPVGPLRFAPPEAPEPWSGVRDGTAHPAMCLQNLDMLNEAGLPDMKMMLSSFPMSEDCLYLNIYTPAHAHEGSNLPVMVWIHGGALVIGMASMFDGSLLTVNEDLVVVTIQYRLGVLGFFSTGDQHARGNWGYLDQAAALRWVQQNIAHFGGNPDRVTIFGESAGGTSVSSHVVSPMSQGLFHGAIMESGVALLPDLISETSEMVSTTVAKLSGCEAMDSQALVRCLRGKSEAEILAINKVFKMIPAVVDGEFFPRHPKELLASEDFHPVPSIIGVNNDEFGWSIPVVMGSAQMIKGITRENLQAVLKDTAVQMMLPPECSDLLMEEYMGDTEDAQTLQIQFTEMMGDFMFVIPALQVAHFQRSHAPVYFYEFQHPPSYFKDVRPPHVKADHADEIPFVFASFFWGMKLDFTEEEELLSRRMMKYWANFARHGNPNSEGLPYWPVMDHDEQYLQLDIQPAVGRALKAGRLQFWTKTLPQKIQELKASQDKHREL

ces1d = molecular target: T7, ces1d (Mus musculus, UniProt Q8VCT4); settings: 1 nM Orlistat; cited from earlier work
T7 sequence (Q8VCT4 19-565): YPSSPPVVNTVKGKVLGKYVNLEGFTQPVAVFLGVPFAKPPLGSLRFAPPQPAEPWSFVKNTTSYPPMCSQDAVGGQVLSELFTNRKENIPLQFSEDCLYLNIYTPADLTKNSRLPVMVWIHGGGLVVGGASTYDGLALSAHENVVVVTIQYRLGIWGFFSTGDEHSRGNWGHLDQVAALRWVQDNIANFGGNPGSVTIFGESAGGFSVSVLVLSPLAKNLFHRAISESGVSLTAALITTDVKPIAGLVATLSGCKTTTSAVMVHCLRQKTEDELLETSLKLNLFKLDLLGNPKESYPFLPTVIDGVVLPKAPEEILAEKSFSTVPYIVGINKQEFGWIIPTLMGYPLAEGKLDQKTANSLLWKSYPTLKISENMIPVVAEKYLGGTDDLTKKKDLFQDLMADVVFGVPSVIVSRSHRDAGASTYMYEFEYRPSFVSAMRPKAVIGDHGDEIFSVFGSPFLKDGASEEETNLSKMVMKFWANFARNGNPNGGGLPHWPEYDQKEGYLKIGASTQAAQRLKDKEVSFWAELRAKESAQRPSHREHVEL

In the case of `CCCCCCCCCCC[C@@H](C[C@@H]1OC(=O)[C@H]1CCCCCC)OC(=O)[C@H](CC(C)C)NC=O` [Orlistat], the “inhibition of mouse ces2e” value (mouse ces2e) is listed as 55%, the “inhibition of CES2” value (CES2 [1]) is listed as 75% and the inhibition at 0.1 µM (CES1; 100 nM orlistat) is listed as roughly 30%. The “inhibition of CES1” value (CES1; Orlistat at 1 nM) was “no inhibition”, the “reduction of cell viability by PPD (carbamate) in the presence of Orlistat” value (cells; PPD plus Orlistat) was “significantly reversed” and the “reduction of the cell killing activity of PPD” value (cells; pretreatment with Orlistat) was no more than 60%. The cell viability (cells; treatment with substance alone) was “no changes”, the “inhibition of CES2 activity in cells” value (CES2 [2]; 1-h incubation) was roughly 80% and the “CES2 expression (Western blotting)” value (CES2 [2]; prolonged incubation 24 h) was “increased”. For the same compound, the “inhibition of CES2 activity in cells” value (CES2 [2]; prolonged incubation 24 h) was “less effective”, the “inhibition of CES2 activity in cells” value (CES2 [2]; treated for 6 h) was “Comparable inhibition” and the “sensitivity of rat ces1e to Orlistat” value (rat ces1e) was “resistant”. The “remaining activity of CES2 upon incubation with Orlistat” value (CES2 [3]; human liver microsomes, free Orlistat removed by native gel electrophoresis) was “profoundly reduced”, the “type of inhibition of CES2” value (CES2 [3]; inhibition persists after removal of Orlistat by electrophoresis) was “irreversible inhibitor” and the “sensitivity of rat ces1d to Orlistat” value (rat ces1d) was “resistant”. For the same compound, the “inhibition of mouse ces2c” value (mouse ces2c) was 90% and the “inhibition of ces1d” value (ces1d) was 12%.
